Measurements taken from ChEMBL document CHEMBL5518181, “Studies of antibacterial activity (in vitro and in vivo) and mode of action for des-acyl tridecaptins (DATs)” (Eur J Med Chem, 2024).
Converted amounts (≈) assume the structure as drawn.

What was measured:
[1] = test system: Escherichia coli; test: Antibacterial activity against wild-type Escherichia coli ATCC 25922 assessed as inhibition of bacterial growth incubated for 18 hrs; assay type: functional; details: read-out: MIC100
[2] = test system: Klebsiella pneumoniae; test: Antibacterial activity against wild-type Klebsiella pneumoniae ATCC 13883 assessed as inhibition of bacterial growth incubated for 18 hrs; assay type: functional; details: read-out: MIC100
[3] = Hemolytic activity in human red blood cells at 400 ug/ml incubated for 45 mins by spectrophotometric analysis relative to control; assay type: toxicity, cell-based, Erythrocyte; details: red blood cells (erythrocytes), at 400 µg/mL, read-out: Activity
[4] = Cytotoxicity against human HepG2 cells incubated for 40 hrs by celltiter-glo luminescent cell viability assay; assay type: toxicity, cell-based
[5] = test system: Escherichia coli; test: Antibacterial activity against wild-type Escherichia coli ATCC 25922 assessed as inhibition of bacterial growth by measuring fold increase in MIC incubated for 18 hrs in presence of 50% heat inactivated human serum relative to control; assay type: functional
[6] = test system: Escherichia coli; test: Antibacterial activity against wild-type Escherichia coli ATCC 25922 assessed as inhibition of bacterial growth incubated for 18 hrs in presence of 50% heat inactivated human serum; assay type: functional; details: read-out: MIC100
[7] = test system: Escherichia coli; test: Antibacterial activity against Escherichia coli ATCC 25922 harboring hldE knock-out assessed as inhibition of bacterial growth incubated for 18 hrs; assay type: functional; details: read-out: MIC100
[8] = test system: Escherichia coli; test: Antibacterial activity against Escherichia coli ATCC 25922 harboring tolC knock-out assessed as inhibition of bacterial growth incubated for 18 hrs; assay type: functional; details: read-out: MIC100
[9] = test system: Klebsiella pneumoniae; test: Antibacterial activity against wild-type Klebsiella pneumoniae ATCC 13883 assessed as inhibition of bacterial growth incubated for 18 hrs in presence of 50% heat inactivated human serum; assay type: functional; details: read-out: MIC100
[10] = test system: Acinetobacter baumannii; test: Antibacterial activity against wild-type Acinetobacter baumannii ATCC 19606 assessed as inhibition of bacterial growth incubated for 20 hrs; assay type: functional; details: read-out: MIC100
[11] = test system: Pseudomonas aeruginosa; test: Antibacterial activity against wild-type Pseudomonas aeruginosa PAO1 assessed as inhibition of bacterial growth incubated for 24 hrs; assay type: functional; details: read-out: MIC100
[12] = test system: Staphylococcus aureus; test: Antibacterial activity against […] assessed as inhibition of bacterial growth incubated for 18 hrs; assay type: functional; details: ATCC 29213, read-out: MIC100
[13] = Hydrophobicity of compound assessed as %MeCN at peak elution by RP-HPLC analysis; assay type: physicochemical
[14] = Binding affinity to gram negative bacterial lipid II assessed as dissociation constant by ITC analysis; parameters: species or system Bacteria
[15] = test system: Lipopolysaccharide (LPS); test: Binding affinity to Escherichia coli O55:B5 LPS assessed as dissociation constant by ITC analysis; assay type: subcellular

Row | Structure (SMILES) | MIC [1] [µg/mL] | MIC [2] [µg/mL] | hemolysis at 0.75 h, 400 ug/ml [3] [%] | IC50 at 40 h [4] [µg/mL] | fold change (FC) [5] | MIC [6] [µg/mL] | MIC [7] [µg/mL] | MIC [8] [µg/mL] | MIC [9] [µg/mL] | MIC [10] [µg/mL] | MIC [11] [µg/mL] | MIC [12] [µg/mL] | MeCN percentage at peak elution [13] [%] | Kd [14] [nM] | Kd [15] [µM]
1 | CC[C@H](C)[C@@H](NC(=O)[C@@H](NC(=O)[C@H](CCC(=O)O)NC(=O)[C@H](Cc1ccccc1)NC(=O)[C@@H](CCN)NC(=O)[C@H](CCN)NC(=O)[C@H](CO)NC(=O)[C@@H](Cc1c[nH]c2ccccc12)NC(=O)[C@@H](CO)NC(=O)CNC(=O)[C@@H](CCN)NC(=O)[C@H](NC(=O)CCCCCN)C(C)C)C(C)C)C(=O)N[C@@H](C)C(=O)O | 64 (≈ 42.4 µM) | 32 (≈ 21.2 µM) | 3.5 | > 170 | 8 | 2 | 8 (≈ 5.31 µM) | 32 (≈ 21.2 µM) | 2 | 64 (≈ 42.4 µM) | > 64 | > 64 | 40.1 |  | 
2 | CC[C@H](C)[C@@H](NC(=O)[C@@H](NC(=O)[C@H](CCC(=O)O)NC(=O)[C@H](Cc1c[nH]c2ccccc12)NC(=O)[C@@H](CCN)NC(=O)[C@H](CCN)NC(=O)[C@H](CO)NC(=O)[C@@H](Cc1c[nH]c2ccccc12)NC(=O)[C@@H](CO)NC(=O)CNC(=O)[C@@H](CCN)NC(=O)[C@H](NC(=O)[C@H](C)N)C(C)C)C(C)C)C(=O)N[C@@H](C)C(=O)O | 1 (≈ 0.665 µM) | 1 (≈ 0.665 µM) | 41.7 | 151 (≈ 100 µM) |  |  |  |  |  |  |  |  |  | 5200 | 14.8
3 | CC[C@H](C)[C@@H](NC(=O)[C@@H](NC(=O)[C@H](CCC(=O)O)NC(=O)[C@H](Cc1ccccc1)NC(=O)[C@@H](CCN)NC(=O)[C@H](CCN)NC(=O)[C@H](CO)NC(=O)[C@@H](Cc1c[nH]c2ccccc12)NC(=O)[C@@H](CO)NC(=O)CNC(=O)[C@@H](CCN)NC(=O)[C@H](NC(=O)[C@@H](N)C(C)C)C(C)C)C(C)C)C(=O)N[C@@H](C)C(=O)O | 2 (≈ 1.34 µM) | 2 (≈ 1.34 µM) | 14.6 | 87 (≈ 58.2 µM) | 2 | 1 | 32 (≈ 21.4 µM) | 1 (≈ 0.669 µM) | 0.5 | 64 (≈ 42.8 µM) | 64 (≈ 42.8 µM) | > 64 | 41.5 |  | 
4 | CC[C@@H](C)[C@@H](NC(=O)[C@@H](NC(=O)[C@H](CCC(=O)O)NC(=O)[C@H](Cc1ccccc1)NC(=O)[C@@H](CCN)NC(=O)[C@H](CCN)NC(=O)[C@H](CO)NC(=O)[C@@H](Cc1c[nH]c2ccccc12)NC(=O)[C@@H](CO)NC(=O)CNC(=O)[C@@H](CCN)NC(=O)[C@H](N)C(C)C)C(C)C)C(=O)N[C@@H](C)C(N)=O | 16 (≈ 11.5 µM) | 64 (≈ 45.9 µM) | 0.4 | > 170 |  |  |  |  |  |  |  |  |  | 580 | 11.4
5 | CC[C@H](C)[C@@H](NC(=O)[C@@H](NC(=O)[C@H](CCC(=O)O)NC(=O)[C@H](Cc1ccccc1)NC(=O)[C@@H](CCN)NC(=O)[C@H](CCN)NC(=O)[C@H](CO)NC(=O)[C@@H](Cc1c[nH]c2ccccc12)NC(=O)[C@@H](CO)NC(=O)CNC(=O)[C@@H](CCN)NC(=O)[C@H](NC(=O)[C@@H]1CCCN1)C(C)C)C(C)C)C(=O)N[C@@H](C)C(=O)O | 4 (≈ 2.68 µM) | 4 (≈ 2.68 µM) | 5.5 | 109 (≈ 73.1 µM) | 2 | 1 | 2 (≈ 1.34 µM) | 2 (≈ 1.34 µM) | 1 | 64 (≈ 42.9 µM) | > 64 | > 64 | 41.9 |  | 
